Experimental findings from ChEMBL document CHEMBL6127038, “How many organic small molecules might be used to treat COVID-19? From natural products to synthetic agents” (Eur J Med Chem, 2024) are described below.

This test deals with SARS-CoV-2. Briefly: Antiviral activity against SARS CoV-2 infected in HEK293 cells overexpressing hACE2 assessed as inhibition of viral infection. It counts as functional, organism-based. The conditions noted are these: Severe acute respiratory syndrome coronavirus 2, HEK293.

As to `NC(=O)CC[C@H](NC(=O)[C@H](Cc1ccc(O)cc1)NC(=O)[C@H](Cc1ccccc1)N1CCN(C(=O)[C@H](CC(=O)O)NC(=O)[C@@H](N)CCC(=O)O)CC1=O)C(N)=O`, the IC50 – broadly, the midpoint of a concentration-inhibition curve – came to 15 µM.
